Test results as given in publication PMC11528470, “Evidence for the Quercetin Binding Site of Glycogen Phosphorylase as a Target for Liver-Isoform-Selective Inhibitors against Glioblastoma: Investigation of Flavanols Epigallocatechin Gallate and Epigallocatechin” (Journal of Agricultural and Food Chemistry, 2024).
Like-named read-outs stand apart in the source and are kept apart here.

Legend:
[1] = molecular target: T1, human liver glycogen phosphorylase a (hlGPa) (Homo sapiens, UniProt P06737); assay: enzyme kinetics on purified hlGPa, Lineweaver–Burk; format: biochemical
T1 construct: gene PYGL
T1 sequence (P06737 2-847): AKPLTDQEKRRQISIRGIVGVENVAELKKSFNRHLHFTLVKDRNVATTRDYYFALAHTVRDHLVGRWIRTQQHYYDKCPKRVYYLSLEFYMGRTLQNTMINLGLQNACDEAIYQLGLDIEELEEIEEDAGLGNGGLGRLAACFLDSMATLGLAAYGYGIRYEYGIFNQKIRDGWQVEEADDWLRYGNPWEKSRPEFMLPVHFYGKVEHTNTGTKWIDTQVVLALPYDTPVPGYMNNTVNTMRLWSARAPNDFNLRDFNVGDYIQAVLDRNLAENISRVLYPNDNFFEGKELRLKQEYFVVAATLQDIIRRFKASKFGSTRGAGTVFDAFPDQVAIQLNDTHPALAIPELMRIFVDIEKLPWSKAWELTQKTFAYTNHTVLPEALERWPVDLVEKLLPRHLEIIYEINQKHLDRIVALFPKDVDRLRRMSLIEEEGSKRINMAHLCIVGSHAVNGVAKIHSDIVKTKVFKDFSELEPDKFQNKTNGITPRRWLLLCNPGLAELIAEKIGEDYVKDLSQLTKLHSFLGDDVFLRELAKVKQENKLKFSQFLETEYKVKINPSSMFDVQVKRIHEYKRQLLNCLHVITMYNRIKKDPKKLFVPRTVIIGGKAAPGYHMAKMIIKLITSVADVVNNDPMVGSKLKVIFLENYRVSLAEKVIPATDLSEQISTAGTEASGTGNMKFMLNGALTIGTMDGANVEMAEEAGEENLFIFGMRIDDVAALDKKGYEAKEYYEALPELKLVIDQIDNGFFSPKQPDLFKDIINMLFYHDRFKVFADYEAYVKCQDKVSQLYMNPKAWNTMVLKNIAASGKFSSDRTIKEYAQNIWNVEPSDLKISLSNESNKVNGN

[2] = molecular target: T2, Rabbit skeletal muscle glycogen phosphorylase b (rmGPb) (Oryctolagus cuniculus, UniProt P00489); assay: X-ray crystal structure ([…] Å) plus enzyme kinetics (noncompetitive Ki); format: biochemical
T2 construct: gene PYGM
T2 sequence (P00489 2-843): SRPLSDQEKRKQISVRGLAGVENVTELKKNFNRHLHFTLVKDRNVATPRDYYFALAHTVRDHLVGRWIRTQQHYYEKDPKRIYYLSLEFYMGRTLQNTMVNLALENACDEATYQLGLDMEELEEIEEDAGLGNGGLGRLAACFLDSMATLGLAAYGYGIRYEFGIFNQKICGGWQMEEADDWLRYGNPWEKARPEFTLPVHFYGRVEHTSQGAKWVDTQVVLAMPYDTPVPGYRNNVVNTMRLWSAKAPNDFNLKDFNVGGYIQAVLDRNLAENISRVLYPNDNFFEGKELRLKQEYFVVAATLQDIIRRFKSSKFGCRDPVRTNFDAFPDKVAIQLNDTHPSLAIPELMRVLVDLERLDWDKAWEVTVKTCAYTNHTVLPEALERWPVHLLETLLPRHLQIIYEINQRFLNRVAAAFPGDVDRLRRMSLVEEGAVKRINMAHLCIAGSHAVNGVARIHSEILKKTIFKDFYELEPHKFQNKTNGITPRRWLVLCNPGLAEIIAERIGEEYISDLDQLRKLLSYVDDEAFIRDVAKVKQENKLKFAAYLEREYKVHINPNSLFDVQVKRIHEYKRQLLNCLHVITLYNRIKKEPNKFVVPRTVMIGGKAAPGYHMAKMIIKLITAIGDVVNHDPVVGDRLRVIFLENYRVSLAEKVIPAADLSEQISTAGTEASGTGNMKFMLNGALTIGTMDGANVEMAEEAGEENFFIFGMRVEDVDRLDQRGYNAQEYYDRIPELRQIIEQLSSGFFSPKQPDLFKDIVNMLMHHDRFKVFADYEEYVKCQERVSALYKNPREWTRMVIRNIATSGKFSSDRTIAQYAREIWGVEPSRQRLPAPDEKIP

[3] = molecular target: T2, Rabbit skeletal muscle glycogen phosphorylase b (rmGPb); assay: as above; format: biochemical; remark: listed apart in the source
[4] = molecular target: T1, human liver glycogen phosphorylase a (hlGPa); assay: enzyme inhibition assay on purified hlGPa; format: biochemical
[5] = molecular target: T2, Rabbit skeletal muscle glycogen phosphorylase b (rmGPb)
[6] = molecular target: T2, Rabbit skeletal muscle glycogen phosphorylase b (rmGPb); assay: X-ray crystal structure of ternary rmGPb-EGCG-glucose complex ([…] Å); multiple inhibition kinetics; format: binding

**Q.** For `O=C(O[C@@H]1Cc2c(O)cc(O)cc2O[C@@H]1c1cc(O)c(O)c(O)c1)c1cc(O)c(O)c(O)c1` [EGCG], which Ki [1] is on record?
**A.** Its Ki is 17.6 ± 0.7 µM.

**Q.** What about the Ki [2] of the same molecule?
**A.** Its Ki is 49.8 ± 1.6 µM.

**Q.** How did the Ki [3] turn out when `Oc1cc(O)c2c(c1)O[C@H](c1cc(O)c(O)c(O)c1)[C@H](O)C2` [EGC] was run?
**A.** Its Ki is 286 ± 14.1 µM.

**Q.** What about the IC50 [4] of the same molecule?
**A.** Its IC50 is 194 ± 3.5 µM.

**Q.** With `Cn1c(=O)c2c(ncn2C)n(C)c1=O` [caffeine] as the molecule, how does the “X-ray crystal structure of ternary rmGPb-EGCG-caffeine complex (2.5 Å); multiple” value [5] read?
**A.** Its value is “EGCG can bind at the QBS simultaneously with glucose at the catalytic site or caffeine at the inhibitor site”.

**Q.** For `OC[C@H]1OC(O)[C@H](O)[C@@H](O)[C@@H]1O` (stereo partly drawn) [glucose], which “X-ray crystal structure of ternary rmGPb-EGCG-glucose complex (2.0 Å); multiple” value [6] is on record?
**A.** Its value is “EGCG can bind at the QBS simultaneously with glucose at the catalytic site or caffeine at the inhibitor site”.
